Measurements as given in US20240091366A1, “NOVEL ACID-SENSITIVE APTAMER TRIPTOLIDE CONJUGATE AND APPLICATIONS” (priority 2022, published 2024).
Several values for one entry are separate records, joined by “and”; a condition that tells them apart may be missing. Equal entries are not always repeated.

Key:
[1] = system: human normal hepatocytes LO2; experiment: MTT assay, cytotoxicity on normal cells; type: cell-based; conditions: for cell proliferation inhibition rate: 48 h, samples 1-3
Method: (§1) The same materials as those in Part II above are not repeated here, in addition to the following: human normal hepatocytes LO2, human embryonic kidney cells HEK293 were purchased from the Shanghai Cell Bank of the Chinese Academy of Sciences and preserved in our laboratory.
(§2) Take the […] LO2 and HEK293 cell lines from the liquid nitrogen tank, place them in a 37° C. water bath, wait for the frozen cells to melt into cell suspension, centrifuge the cells at 1000 r/min for 3 min, discard the supernatant, add 1 ml of fresh complete medium containing 10% fetal bovine serum and 1% double antibody to mix the cells, then add 5 ml of medium, gently and repeatedly blowing the cells with a pipette gun to make them mix well. Then add 5 ml of medium, blow the cells gently and repeatedly with a pipette gun to mix them well, and finally transfer the cell suspension to a […] and label the cell name, cell number, date of resuscitation and the operator's name, and place it in a cell culture incubator for cultivation. (HEK293 cell line was cultured with DMEM medium, LO2 cell line was cultured with RPMI1640 medium)
(§3) Take LO2 and HEK293 cells with good growth status, remove the medium, add 1 ml of sterile PBS to wash, add 1.5 ml of trypsin to digest the cells, about 2 min later the cells become round and fall off, add 1.5 ml of medium to terminate the digestion, transfer it to centrifugal tube, centrifuge at 1000 r/min for 3 min, discard the supernatant, add 1 ml of fresh medium to resuspend, then add fresh medium for 1:3 distribution to other culture dishes, and label the date of transmission and the number of generations. Place in the cell culture incubator for cultivation.
(§4) Take LO2 and HEK293 cells with good growth status, by the same operation as the cell passaging experiment, after cell resuspension, cell counting with hemocyte counting plate, with 3000 cells/well, plant in 96-well plate, after 24 h of cell culture, remove the original medium, add medium containing different concentrations of drugs and continue to cultivate for 48 hours. After 24 h of cell culture, the original medium was removed and the medium containing different concentrations of drugs was added to continue the culture for 48 hours. […] The above steps were repeated three times.

[2] = system: human embryonic kidney cells HEK293; experiment: MTT assay, cytotoxicity on normal cells; type: cell-based; conditions: for cell proliferation inhibition rate: 48 h, samples 1-3
Method: as §1, §2, §3, §4

[3] = system: colon cancer cells HCT116; experiment: In vivo antitumor activity, colon cancer xenograft in nude mice; set-up: species or system mouse; Tumor weight: unit not given here; conditions: HCT116 model, once every 2 days, 8 doses
Excerpt: (§5) The following are the in vivo activity studies conducted in different tumor-bearing mice:
(§6) A PBS negative control group was set up.

[4] = Body weight during administration, lung cancer model; conditions: A549 model, during 8 times of administration
Method: (§7) Experimental protocol: Female nude mice were reared for 6-7 weeks under standard environment, lung cancer cell line A549 were suspended in serum-free medium, and each mouse was inoculated with 6*10^6 tumor cells. When the tumor volume reached 50-100 mm^3, the mice were randomly divided into 4 groups, and were injected with aptamer triptolide conjugate, triptolide, and aptamer by tail vein, respectively, 12 mice in each group. A PBS negative control group was set up. […] The drugs were administered once every 2 days for 8 consecutive doses, and the experiment was ended 24 hours after the last dose. At the end of the experiment, the animals were executed by breaking the cervical vertebrae, and the tumors were stripped and weighed to calculate the tumor growth inhibition rate of the drug. The t-test was used to compare the tumor weight, tumor volume, RTV and other indexes of the animals in each group.

[5] = system: lung cancer cell line A549; experiment: In vivo antitumor activity, lung cancer xenograft in nude mice; set-up: species or system mouse; Tumor weight: unit not given here; conditions: A549 model, once every 2 days, 8 doses
Excerpt: as §5, §6

[6] = Body weight during administration, colon cancer model; conditions: HCT116 model, during 8 times of administration
Method: as §7, with “Female” for “Experimental protocol: Female”, “colon” for “lung”, “cells HCT116” for “cell line A549”, “5*10^6” for “6*10^6”

AS1411: nucleolin aptamer, single-stranded oligonucleotide, SEQ ID NO: 1 GGTGGTGGTGGTTGTGGTGGTGGTGG
inhibitory effect on normal cells ([1]; LO2): no significant inhibitory effect | cell proliferation inhibition rate ([1]; LO2, 6.3 nM, 0.0063 µM): 2.1198 and 1.5844 and 2.2503 | cell proliferation inhibition rate ([1]; LO2, 12.5 nM, 0.0125 µM): 3.1924 and 2.7446 and 2.0042 | cell proliferation inhibition rate ([1]; LO2, 25.0 nM, 0.025 µM): 4.5962 and 5.2695 and 5.1506 | cell proliferation inhibition rate ([1]; LO2, 50.0 nM, 0.05 µM): 7.3070 and 6.4174 and 7.0396 | cell proliferation inhibition rate ([1]; LO2, 100.0 nM, 0.1 µM): 7.6842 and 6.8369 and 7.5344 | cell proliferation inhibition rate ([1]; LO2, 200.0 nM, 0.2 µM): 8.3084 and 8.0987 and 13.5426 | inhibitory effect on normal cells ([2]; HEK293): no significant inhibitory effect | cell proliferation inhibition rate ([2]; HEK293, 6.3 nM, 0.0063 µM): 1.4844 and 1.0633 and 2.0955 | cell proliferation inhibition rate ([2]; HEK293, 12.5 nM, 0.0125 µM): 2.3262 and 2.9846 and 3.9285 | cell proliferation inhibition rate ([2]; HEK293, 25.0 nM, 0.025 µM): 4.6088 and 4.6251 and 5.5956 | cell proliferation inhibition rate ([2]; HEK293, 50.0 nM, 0.05 µM): 5.9341 and 4.5183 and 7.0200 | cell proliferation inhibition rate ([2]; HEK293, 100.0 nM, 0.1 µM): 9.5603 and 9.9858 and 6.6667 | cell proliferation inhibition rate ([2]; HEK293, 200.0 nM, 0.2 µM): 13.0496 and 11.5603 and 7.0200 | RTV ([3]; 10 μM 100 μL tail vein): 33.13 ± 0.51 | T/C (%) ([3]; 10 μM 100 μL tail vein): 93.19% | Tumor inhibition rate (%) ([3]; 10 μM 100 μL tail vein): 6.45% | Tumor weight ([3]; 10 μM 100 μL tail vein): 2.92 ± 0.33 | RTV ([3]; 30 μM 100 μL tail vein): 28.56 ± 0.23 | T/C (%) ([3]; 30 μM 100 μL tail vein): 80.34% | Tumor inhibition rate (%) ([3]; 30 μM 100 μL tail vein): 12.91% | Tumor weight ([3]; 30 μM 100 μL tail vein): 2.74 ± 0.15 | RTV ([3]; 50 μM 100 μL tail vein): 26.32 ± 0.15 | T/C (%) ([3]; 50 μM 100 μL tail vein): 74.04% | Tumor inhibition rate (%) ([3]; 50 μM 100 μL tail vein): 16.12% | Tumor weight ([3]; 50 μM 100 μL tail vein): 2.66 ± 0.14 | body weights of mice [4]: basically maintained in the tolerable range of animal toxicity and side-effects | RTV ([5]; 10 μM tail vein): 34.57 ± 0.18 | T/C (%) ([5]; 10 μM tail vein): 89.93% | Tumor inhibition rate (%) ([5]; 10 μM tail vein): 6.06% | Tumor weight ([5]; 10 μM tail vein): 3.16 ± 0.13 | RTV ([5]; 30 μM tail vein): 31.09 ± 0.27 | T/C (%) ([5]; 30 μM tail vein): 75.76% | Tumor inhibition rate (%) ([5]; 30 μM tail vein): 15.15% | Tumor weight ([5]; 30 μM tail vein): 2.88 ± 0.26 | RTV ([5]; 50 μM tail vein): 26.19 ± 0.38 | T/C (%) ([5]; 50 μM tail vein): 70.06% | Tumor inhibition rate (%) ([5]; 50 μM tail vein): 21.21% | Tumor weight ([5]; 50 μM tail vein): 2.61 ± 0.38 | body weights of mice [6]: basically maintained in the tolerable range of animal toxicity and side-effects
